From US8148404B2, “Modulators of CB1 receptors” (7TM Pharma A/S, priority 2006, dated 2012) come the findings set out here.

The target in this assay is T1, human CB1 receptor (Homo sapiens, UniProt P21554).
T1 construct: expressed in transfected cells; membranes used
The assay can be described thus: Cannabinoid Receptor-1 functional assay: inhibition of CP55940-induced [35S]GTPγS binding to membranes of CHO-K1 cells expressing human CB1. The assay is classed as biochemical. The conditions noted are these: 3 nM CP55940, [35S]GTPγS SPA, hCB1 membranes; read-out: IC50 value for antagonizing a CB1 receptor agonist. The source says: Transfection and Cell Culture—The cDNA encoding the human CB1 (Cannabinoid Receptor-1) receptor (GenBank accession number NM_016083) was cloned from a human adipose tissue cDNA library and cloned into the eukaryotic expression vector pcDNA3.1 (Invitrogen).
Chinese Hamster Ovary cells (CHO-K1) stably expressing recombinant human CB1 were generated by transfecting the plasmid containing the coding sequence of the human CB1 receptor in CHO-K1 cells, using lipofectamin, according to the manufacturer instructions. Resistant clones were selected in the presence of 600 μg/ml G418 (Life technology). Stably transfected CHO-K1 cells were maintained in Ham's F-12 culture medium (Invitrogen), supplemented with 10% fetal calf serum (Invitrogen), 100 U/ml penicillin, 100 μg/ml streptomycin (Life Technology), and 600 μg/ml G418.
Functional activities of the above examples of compounds of the invention were assessed in vitro by measuring their ability to inhibit CP55940-induced [^35S]GTPγS binding to membranes prepared from CHO-K1 cells expressing the human CB1 receptor (described in Transfection and Cell Culture). CP55940 is a well known non-selective CB1 and CB2 receptor agonist (e.g Felder et al., 1995, Molecular Pharmacology, (48) 443-50). Membranes were prepared by a standard procedure. Briefly, cells were harvested using 10 mM EDTA and collected by centrifugation. Pelleted cells were homogenized in ice-cold 20 mM Hepes (pH 7.4), 10 mM EDTA and protease inhibitors (Complete protease inhibitor cocktail tablet, Roche) using an Ultra Turrax Homogenizer. The homogenate was centrifuged at 14 000 rpm for 45 min. at 4° C. The resultant pellet was resuspended in the same buffer but with only 0.1 mM EDTA and was again centrifuged at 14 000 rpm for 45 min. at 4° C. The resulting pellet (membranes) was resuspended in 20 mM Hepes (pH 7.4), 0.1 mM EDTA, 2 mM MgCl2 and protease inhibitors and protein concentration was determined by Micro BCA Protein Assay Reagent Kit (Pierce Biotechnology) according to the manufacturer instructions. The [^35S]GTPγS SPA (Scintillation Proximity Assay) binding assay was performed by incubating 5 μg/well hCB1-membranes with 1 nM [^35S]GTPγS (Perkin Elmer—NEG 030H) in the presence of 3 nM of CP55940 and various concentrations of the test compounds at room temperature for 1 hr in 96-well microtiter plates. 0.4 mg/well SPA beads (PVT-WGA; RPNQ0001 Amersham Pharmacia Biotech) were then added and the incubation continued for further 30 min. on an orbital shaker. The assay buffer contained 50 mM HEPES (pH 7.5), 50 mM NaCl, 2.5 mM MgCl2, 0.1% BSA, 1 μM GDP and 100 μg/ml Saponin. Microtiter plates were centrifuged at 1500 rpm for 5 min. and radioactivity was read immediately using a Topcounter (PerkinElmer Life Sciences). Data were analyzed and IC50 values determined by non-linear regression using the Prism software (GraphPad Software, San Diego).

Where only a bound is given, the exact number is not on record here.

T1 sequence (P21554 whole entry): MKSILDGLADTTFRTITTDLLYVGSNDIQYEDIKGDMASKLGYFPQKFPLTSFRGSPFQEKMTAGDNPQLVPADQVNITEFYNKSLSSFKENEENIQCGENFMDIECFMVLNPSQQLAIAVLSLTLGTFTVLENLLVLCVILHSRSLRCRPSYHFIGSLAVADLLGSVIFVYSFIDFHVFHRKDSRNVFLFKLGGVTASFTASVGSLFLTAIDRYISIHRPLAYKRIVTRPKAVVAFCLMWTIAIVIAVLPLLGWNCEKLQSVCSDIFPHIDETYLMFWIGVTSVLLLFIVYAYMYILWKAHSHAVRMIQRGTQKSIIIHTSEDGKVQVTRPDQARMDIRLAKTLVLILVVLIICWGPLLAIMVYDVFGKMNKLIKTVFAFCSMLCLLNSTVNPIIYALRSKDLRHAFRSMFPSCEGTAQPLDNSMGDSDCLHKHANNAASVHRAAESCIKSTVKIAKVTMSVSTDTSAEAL

For `Cc1ccc(C2(O)CCN(C(=O)c3nn(-c4ccccc4Cl)c(-c4ccc(Cl)cc4)c3CC(=O)O)CC2)nc1` [[1.22], [5-(4-Chloro-phenyl)-1-(2-chloro-phenyl)-3-(4′-hydroxy-5-methyl-3′,4′,5′,6′-tetrahydro-2′H-[2,4′]bipyridinyl-1′-carbonyl)-1H-pyrazol-4-yl]-acetic acid], the IC50 (usually the concentration that gives 50% inhibition) was 300 to 3000 nM. In the case of `O=C(c1nn(-c2ccccc2F)c(-c2ccc(Cl)cc2)c1Cc1nn[nH]n1)N1CCC(c2ccccc2F)CC1` [[4.2], [1-(2-Fluoro-phenyl)-5-(4-chloro-phenyl)-4-(2H-tetrazol-5-ylmethyl)-1H-pyrazol-3-yl]-[4-(2-fluoro-phenyl)-piperidin-1-yl]-methanone] it was below 300 nM; in that of `O=C(c1nn(-c2ccccc2Cl)c(-c2ccc(Cl)cc2)c1Cc1nn[nH]n1)N1CCC(c2ccccc2F)CC1` [[3.4], [1-(2-Chloro-phenyl)-5-(4-chloro-phenyl)-4-(2H-tetrazol-5-ylmethyl)-1H-pyrazol-3-yl]-[4-(2-fluoro-phenyl)-piperidin-1-yl]-methanone], below 300 nM; in that of `O=C(O)Cc1c(C(=O)N2CCC(O)(c3cccc(F)c3F)CC2)nn(-c2ccccc2Cl)c1-c1ccc(Cl)cc1` [[1.25], {5-(4-Chloro-phenyl)-1-(2-chloro-phenyl)-3-[4-(2,3-difluoro-phenyl)-4-hydroxy-piperidine-1-carbonyl]-1H-pyrazol-4yl}-acetic acid], below 300 nM. Under `O=C(O)Cc1c(C(=O)N2CCC(Oc3ccc(Cl)cc3)CC2)nn(-c2ccccc2Cl)c1-c1ccc(Cl)cc1` [[1.59], {1-(2-Chloro-phenyl)-5-(4-chloro-phenyl)-3-[4-(4-chlorophenoxy)-piperidine-1-carbonyl]-1H-pyrazol-4-yl}-acetic acid] stands below 300 nM; under `CO[C@H]1CN(C(=O)c2nn(-c3ccccc3Cl)c(-c3ccc(Cl)cc3)c2CC(=O)O)CC[C@@H]1c1ccccc1` (relative stereo) [[1.56], {1-(2-Chloro-phenyl)-5-(4-chloro-phenyl)-3-[trans-4-phenyl-3-methoxy-piper-idine-1-carbonyl]-1H-pyrazol-4-yl}-acetic acid], below 300 nM; under `O=C(O)Cc1c(C(=O)N2CCC(c3ccccc3)CC2)nn(-c2ccccc2Cl)c1-c1ccc(Cl)cc1` [[1.33], [1-(2-Chloro-phenyl)-5-(4-chloro-phenyl)-3-(4-phenyl-piperidine-1-carbonyl)-1H-pyrazol-4-yl]-acetic acid], below 300 nM. In the case of `O=C(O)Cc1c(C(=O)N2CCC(c3ccc(C(F)(F)F)cc3)CC2)nn(-c2ccccc2Cl)c1-c1ccc(Cl)cc1` [[1.28], {1-(2-Chloro-phenyl)-5-(4-chloro-phenyl)-3-[4-(4-trifluoromethyl-phenyl)-piperidine-1-carbonyl]-1H-pyrazol-4-yl}-acetic acid] it was below 300 nM. In the case of `CS(=O)(=O)c1cccc(C2CCN(C(=O)c3nn(-c4ccccc4Cl)c(-c4ccc(Cl)cc4)c3CC(=O)O)CC2)c1` [[1.57], {1-(2-Chloro-phenyl)-5-(4-chloro-phenyl)-3-[4-(3-methylsulfonyl-phenyl)-piperidine-1-carbonyl]-1H-pyrazol-4-yl}-acetic acid], the IC50 is 300 to 3000 nM. In the case of `O=C(O)Cc1c(C(=O)N2CCCC2)nn(-c2ccccc2Cl)c1-c1ccc(Cl)cc1` [[1.46], [1-(2-Chloro-phenyl)-5-(4-chloro-phenyl)-3-(pyrrolidine-1-carbonyl)-1H-pyrazol-4-yl]-acetic acid] it was 300 to 3000 nM; in that of `O=C(O)Cc1c(C(=O)N2CCC(O)(c3ccc(F)c(Cl)c3)CC2)nn(-c2ccccc2Cl)c1-c1ccc(Cl)cc1` [[1.43], [3-[4-(3-Chloro-4-fluoro-phenyl)-4-hydroxy-piperidine-1-carbonyl]-1-(2-chloro-phenyl)-5-(4-chloro-phenyl)-1H-pyrazol-4-yl]-acetic acid], below 300 nM; in that of `COC1(c2ccc(F)cc2)CCN(C(=O)c2nn(-c3ccccc3Cl)c(-c3ccc(Cl)cc3)c2CC(=O)O)CC1` [[1.17], {5-(4-Chloro-phenyl)-1-(2-chloro-phenyl)-3-[4-(4-fluoro-phenyl)-4-methoxy-piperidine-1carbonyl]-1H-pyrazol-4-yl}-acetic acid], below 300 nM. In the case of `O=C(O)Cc1c(C(=O)N2CCOCC2)nn(-c2ccccc2Cl)c1-c1ccc(Cl)cc1` [[1.48], [1-(2-Chloro-phenyl)-5-(4-chloro-phenyl)-3-(morpholine-4-carbonyl)-1H-pyrazol-4-yl]-acetic acid] it was 3000 to 10000 nM. `O=C(c1nn(-c2ccccc2Cl)c(-c2ccc(Cl)cc2)c1Cc1nn[nH]n1)N1CCC(O)(c2ccc(F)cc2)CC1` [[3.2], [1-(2-Chloro-phenyl)-5-(4-chloro-phenyl)-4-(2H-tetrazol-5-ylmethyl)-1H-pyrazol-3-yl]-[4-(4-fluoro-phenyl)-4-hydroxy-piperidin-1-yl]-methanone]: the IC50 was below 300 nM. In the case of `O=C(O)Cc1c(C(=O)N2CCC(c3cc(Cl)cc(Cl)c3)CC2)nn(-c2ccccc2Cl)c1-c1ccc(Cl)cc1` [[1.35], {1-(2-Chloro-phenyl)-5-(4-chloro-phenyl)-3-[4-(3,5-dichloro-phenyl)-piperidine-1-carbonyl]-1H-pyrazol-4-yl}-acetic acid] it was below 300 nM. In the case of `O=C(c1nn(-c2ccccc2Cl)c(-c2ccc(Cl)cc2)c1Cc1nn[nH]n1)N1CC(Oc2ccc(F)cc2)C1` [[3.7], [1-(2-Chloro-phenyl)-5-(4-chloro-phenyl)-4-(2H-tetrazol-5-ylmethyl)-1H-pyrazol-3-yl]-[3-(4-fluorophenoxy)-azetidin-1-yl]-methanone] it was below 300 nM. Turning to `O=C(O)Cc1c(C(=O)N2CCC(Oc3ccc(F)cc3)C2)nn(-c2ccccc2Cl)c1-c1ccc(Cl)cc1` (centres unmarked) [[1.64], {1-(2-Chloro-phenyl)-5-(4-chloro-phenyl)-3-[3-(4-fluorophenoxy)-pyrrolidine-1-carbonyl]-1H-pyrazol-4-yl}-acetic acid], the IC50 is below 300 nM. As to `O=C(O)Cc1c(C(=O)N2CCc3ccccc3C2)nn(-c2ccccc2Cl)c1-c1ccc(Cl)cc1` [[1.4], [5-(4-Chloro-phenyl)-1-(2-chloro-phenyl)-3-(3,4-dihydro-1H-isoquinoline-2-carbonyl)-1H-pyrazol-4-yl]-acetic acid], the concentration for half-maximal inhibition (IC50) is below 300 nM. Take `O=C(O)Cc1c(C(=O)N2CCC(c3ccccc3F)CC2)nn(-c2ccccc2F)c1-c1ccc(Cl)cc1` [[4.4], {1-(2-Fluoro-phenyl)-5-(4-chloro-phenyl)-3-[4-(2-fluoro-phenyl)-piperidine-1-carbonyl]-1H-pyrazol-4-yl}-acetic acid]: the IC50 was below 300 nM. `O=C(c1nn(-c2ccccc2Cl)c(-c2ccc(Cl)cc2)c1Cc1nn[nH]n1)N1CCC(Oc2ccc(F)c(F)c2)CC1` [[3.8], [1-(2-Chloro-phenyl)-5-(4-chloro-phenyl)-4-(2H-tetrazol-5-ylmethyl)-1H-pyrazol-3-yl]-[4-(3,4-difluorophenoxy)-piperidin-1-yl]-methanone]: the IC50 is below 300 nM. Under `O=C(O)Cc1c(C(=O)N2CCC(c3cc(F)cc(F)c3)CC2)nn(-c2ccccc2Cl)c1-c1ccc(Cl)cc1` [[1.36], {1-(2-Chloro-phenyl)-5-(4-chloro-phenyl)-3-[4-(3,5-difluoro-phenyl)-piperidine-1-carbonyl]-1H-pyrazol-4-yl}-acetic acid] stands below 300 nM. As to `O=C(O)Cc1c(C(=O)N2CCC(O)(Cc3ccccc3)CC2)nn(-c2ccccc2Cl)c1-c1ccc(Cl)cc1` [[1.6], [3-(4-Benzyl-4-hydroxy-piperidine-1-carbonyl)-5-(4-chloro-phenyl)-1-(2-chloro-phenyl)-1H-pyrazol-4-yl]-acetic acid], the IC50 is below 300 nM.

As to `O=C(O)Cc1c(C(=O)N2CCC(O)(c3csc(Br)n3)CC2)nn(-c2ccccc2Cl)c1-c1ccc(Cl)cc1` [[1.24], [3-[4-(2-Bromo-thiazol-4-yl)-4-hydroxy-piperidine-1-carbonyl]-5-(4-chloro-phenyl)-1-(2-chloro-phenyl)-1H-pyrazol-4-yl]-acetic acid], the IC50 was below 300 nM.
